# Source: patent US20140171357A1, “VANCOMYCIN DERIVATIVES” (Seachald Pharmaceuticals, Inc., priority 2011, published 2014)
# Experiments:
# [1] = test system: methicillin-resistant S. aureus (MRSA, 22); experiment: MIC broth microdilution, MRSA; details: for MIC 50% / MIC 90%: MRSA (22)
# [2] = test system: Staphylococcus epidermidis (43 strains); experiment: MIC broth microdilution, S. epidermidis; details: for MIC 50% / MIC 90%: S. epidermidis (43)
# [3] = test system: VanB vancomycin-resistant E. faecium (10); experiment: MIC broth microdilution, VanB E. faecium; details: for MIC 50% / MIC 90%: E. faecium, VanB (10)
# [4] = test system: vancomycin-resistant S. aureus (VRSA, 6); experiment: MIC broth microdilution, VRSA
# [5] = test system: methicillin-susceptible S. aureus (MSSA, 22); experiment: MIC broth microdilution, MSSA; details: for MIC 50% / MIC 90%: MSSA (22)
# [6] = test system: VanA vancomycin-resistant E. faecalis (11); experiment: MIC broth microdilution, VanA E. faecalis; details: for MIC 50% / MIC 90%: E. faecalis, VanA (11)
# [7] = test system: vancomycin-intermediate S. aureus (VISA, 5); experiment: MIC broth microdilution, VISA
# [8] = test system: vancomycin-susceptible E. faecalis (23); experiment: MIC broth microdilution, vancomycin-susceptible E. faecalis; details: for MIC 50% / MIC 90%: E. faecalis, vancomycin-susceptible (23)
# [9] = test system: S. aureus ATCC 25923; experiment: Neutropenic murine thigh infection model; details: for AUCc-t (AUC difference between control and treated animals): 24 h time kill
# [10] = test system: Staphylococcus aureus (65 strains); experiment: MIC broth microdilution, S. aureus all isolates; details: for MIC 50% / MIC 90%: S. aureus (65), all resistance subsets
# [11] = test system: heterogeneous VISA (hVISA, 10); experiment: MIC broth microdilution, hVISA
# [12] = test system: VanB vancomycin-resistant E. faecalis (12); experiment: MIC broth microdilution, VanB E. faecalis; details: for MIC 50% / MIC 90%: E. faecalis, VanB (12)
# [13] = test system: VanC enterococci (22); experiment: MIC broth microdilution, vanC-carrying enterococci; details: for MIC 50% / MIC 90%: VanC enterococci (22)
# [14] = test system: VanA vancomycin-resistant E. faecium (10); experiment: MIC broth microdilution, VanA E. faecium; details: for MIC 50% / MIC 90%: E. faecium, VanA (10)
# [15] = test system: S. pneumoniae (22); experiment: MIC broth microdilution, S. pneumoniae; details: for MIC 50% / MIC 90%: S. pneumoniae (22), MHB + lysed horse blood
# [16] = test system: β-hemolytic streptococci (23); experiment: MIC broth microdilution, β-hemolytic streptococci; details: for MIC 50% / MIC 90%: β-hemolytic streptococci (23), MHB + lysed horse blood
# [17] = test system: vancomycin-susceptible E. faecium (21); experiment: MIC broth microdilution, vancomycin-susceptible E. faecium; details: for MIC 50% / MIC 90%: E. faecium, vancomycin-susceptible (21)
# [18] = 1 mg/kg single intraperitoneal dose
# [19] = 4 mg/kg single intraperitoneal dose
# [20] = 16 mg/kg single intraperitoneal dose
compound,measurement,setting,value
CNC(CC(C)C)C(=O)NC1C(=O)NC(CC(N)=O)C(=O)NC2C(=O)NC3C(=O)NC(C(=O)NC(C(=O)NCCOCCOCCN)c4cc(O)cc(O)c4-c4cc3ccc4O)C(O)c3ccc(c(Cl)c3)Oc3cc2cc(c3OC2OC(CO)C(O)C(O)C2OC2CC(C)(NCc3ccc(-c4ccc(Cl)cc4)cc3)C(O)C(C)O2)Oc2ccc(cc2Cl)C1O (centres unmarked) [Compound 9],MIC 50%,[1],0.12 µg/mL
same,MIC 90%,[1],0.12 µg/mL
same,MIC 50%,[2],0.06 µg/mL
same,MIC 90%,[2],0.06 µg/mL
same,MIC 50%,[3],0.06 µg/mL
same,MIC 90%,[3],0.12 µg/mL
same,MIC 50%,[4],4 µg/mL
same,MIC 50%,[5],0.12 µg/mL
same,MIC 90%,[5],0.12 µg/mL
same,MIC 50%,[6],4 µg/mL
same,MIC 90%,[6],8 µg/mL
same,MIC 50%,[7],0.25 µg/mL
same,MIC 50%,[8],0.12 µg/mL
same,MIC 90%,[8],0.25 µg/mL
same,Max Kill (maximum decrease from initial infection level),[9]; [18],0.98 Log10 CFU/thigh
same,AUCc-t (AUC difference between control and treated animals),[9]; [18],7.4 (Log10 CFU/thigh)/hr
same,Max Kill (maximum decrease from initial infection level),[9]; [19],0.5 Log10 CFU/thigh
same,AUCc-t (AUC difference between control and treated animals),[9]; [19],17.2 (Log10 CFU/thigh)/hr
same,Max Kill (maximum decrease from initial infection level),[9]; [20],−0.01 Log10 CFU/thigh
same,AUCc-t (AUC difference between control and treated animals),[9]; [20],24.6 (Log10 CFU/thigh)/hr
same,MIC 50%,[10],0.12 µg/mL
same,MIC 90%,[10],0.5 µg/mL
same,MIC 50%,[11],0.12 µg/mL
same,MIC 90%,[11],0.12 µg/mL
same,MIC 50%,[12],0.25 µg/mL
same,MIC 90%,[12],0.25 µg/mL
same,MIC 50%,[13],0.12 µg/mL
same,MIC 90%,[13],0.5 µg/mL
same,MIC 50%,[14],1 µg/mL
same,MIC 90%,[14],2 µg/mL
same,MIC 50%,[15],0.06 µg/mL
same,MIC 90%,[15],0.06 µg/mL
same,MIC 50%,[16],0.06 µg/mL
same,MIC 90%,[16],0.12 µg/mL
same,MIC 50%,[17],0.06 µg/mL
same,MIC 90%,[17],0.12 µg/mL
CNC(CC(C)C)C(=O)NC1C(=O)NC(CC(N)=O)C(=O)NC2C(=O)NC3C(=O)NC(C(=O)NC(C(=O)O)c4cc(O)c(CNCCOCCOCCN)c(O)c4-c4cc3ccc4O)C(O)c3ccc(c(Cl)c3)Oc3cc2cc(c3OC2OC(CO)C(O)C(O)C2OC2CC(C)(NCc3ccc(-c4ccc(Cl)cc4)cc3)C(O)C(C)O2)Oc2ccc(cc2Cl)C1O (centres unmarked) [Compound 11],MIC 50%,[1],0.12 µg/mL
same,MIC 90%,[1],0.12 µg/mL
same,MIC 50%,[2],0.06 µg/mL
same,MIC 90%,[2],0.06 µg/mL
same,MIC 50%,[3],0.06 µg/mL
same,MIC 90%,[3],0.12 µg/mL
same,MIC 50%,[4],4 µg/mL
same,MIC 50%,[5],0.12 µg/mL
same,MIC 90%,[5],0.12 µg/mL
same,MIC 50%,[6],4 µg/mL
same,MIC 90%,[6],8 µg/mL
same,MIC 50%,[7],0.25 µg/mL
same,MIC 50%,[8],0.25 µg/mL
same,MIC 90%,[8],0.25 µg/mL
same,Max Kill (maximum decrease from initial infection level),[9]; [18],0.59 Log10 CFU/thigh
same,AUCc-t (AUC difference between control and treated animals),[9]; [18],12.9 (Log10 CFU/thigh)/hr
same,Max Kill (maximum decrease from initial infection level),[9]; [19],0.46 Log10 CFU/thigh
same,AUCc-t (AUC difference between control and treated animals),[9]; [19],10.8 (Log10 CFU/thigh)/hr
same,Max Kill (maximum decrease from initial infection level),[9]; [20],−0.39 Log10 CFU/thigh
same,AUCc-t (AUC difference between control and treated animals),[9]; [20],34.7 (Log10 CFU/thigh)/hr
same,MIC 50%,[10],0.12 µg/mL
same,MIC 90%,[10],0.5 µg/mL
same,MIC 50%,[11],0.12 µg/mL
same,MIC 90%,[11],0.12 µg/mL
same,MIC 50%,[12],0.25 µg/mL
same,MIC 90%,[12],0.25 µg/mL
same,MIC 50%,[13],0.25 µg/mL
same,MIC 90%,[13],0.5 µg/mL
same,MIC 50%,[14],2 µg/mL
same,MIC 90%,[14],4 µg/mL
same,MIC 50%,[15],0.06 µg/mL
same,MIC 90%,[15],0.06 µg/mL
same,MIC 50%,[16],0.06 µg/mL
same,MIC 90%,[16],0.12 µg/mL
same,MIC 50%,[17],0.06 µg/mL
same,MIC 90%,[17],0.12 µg/mL
CN[C@H](CC(C)C)C(=O)N[C@H]1C(=O)N[C@@H](CC(N)=O)C(=O)N[C@H]2C(=O)N[C@H]3C(=O)N[C@H](C(=O)N[C@H](C(=O)O)c4cc(O)cc(O)c4-c4cc3ccc4O)[C@H](O)c3ccc(c(Cl)c3)Oc3cc2cc(c3O[C@@H]2O[C@H](CO)[C@@H](O)[C@H](O)[C@H]2O[C@H]2C[C@](C)(N)[C@H](O)[C@H](C)O2)Oc2ccc(cc2Cl)[C@H]1O [Vancomycin],MIC50,"[1]; Staphylococcus aureus, MRSA",0.5 µg/mL
same,MIC90,"[1]; Staphylococcus aureus, MRSA",1 µg/mL
same,MIC50,[2]; Staphylococcus epidermidis,1 µg/mL
same,MIC90,[2]; Staphylococcus epidermidis,2 µg/mL
same,MIC50,[3]; Enterococcus faecium,64 µg/mL
same,MIC90,[3]; Enterococcus faecium,> 64 µg/mL
same,MIC50,"[5]; Staphylococcus aureus, MSSA",0.5 µg/mL
same,MIC90,"[5]; Staphylococcus aureus, MSSA",1 µg/mL
same,MIC50,[6]; Enterococcus faecalis,> 64 µg/mL
same,MIC90,[6]; Enterococcus faecalis,> 64 µg/mL
same,MIC50,[8]; Enterococcus faecalis,1 µg/mL
same,MIC90,[8]; Enterococcus faecalis,2 µg/mL
same,MIC50,[10]; Staphylococcus aureus,1 µg/mL
same,MIC90,[10]; Staphylococcus aureus,4 µg/mL
same,MIC50,[12]; Enterococcus faecalis,> 64 µg/mL
same,MIC90,[12]; Enterococcus faecalis,> 64 µg/mL
same,MIC50,[13],4 µg/mL
same,MIC90,[13],4 µg/mL
same,MIC50,[14]; Enterococcus faecium,> 64 µg/mL
same,MIC90,[14]; Enterococcus faecium,> 64 µg/mL
same,MIC50,[17]; Enterococcus faecium,0.5 µg/mL
same,MIC90,[17]; Enterococcus faecium,1 µg/mL
CCCCCCCCCCNCCNC1(C)CC(OC2C(Oc3c4cc5cc3Oc3ccc(cc3Cl)C(O)C3NC(=O)C(NC(=O)C5NC(=O)C(CC(N)=O)NC(=O)C(NC(=O)C(CC(C)C)NC)C(O)c5ccc(c(Cl)c5)O4)c4ccc(O)c(c4)-c4c(cc(O)c(CNCCOCCOCC[N+](C)(C)C)c4O)C(C(=O)O)NC3=O)OC(CO)C(O)C2O)OC(C)C1O (centres unmarked) [Compound 1],MIC 50%,[2],0.03 µg/mL
same,MIC 90%,[2],0.06 µg/mL
same,MIC 50%,[3],0.015 µg/mL
same,MIC 90%,[3],0.03 µg/mL
same,MIC 50%,[4],2 µg/mL
same,MIC 50%,[5],0.06 µg/mL
same,MIC 90%,[5],0.06 µg/mL
same,MIC 50%,[6],8 µg/mL
same,MIC 90%,[6],8 µg/mL
same,MIC 50%,[7],0.12 µg/mL
same,MIC 50%,[8],0.06 µg/mL
same,MIC 90%,[8],0.12 µg/mL
same,Max Kill (maximum decrease from initial infection level),[9]; [18],0.15 Log10 CFU/thigh
same,AUCc-t (AUC difference between control and treated animals),[9]; [18],28 (Log10 CFU/thigh)/hr
same,Max Kill (maximum decrease from initial infection level),[9]; [19],−1.14 Log10 CFU/thigh
same,AUCc-t (AUC difference between control and treated animals),[9]; [19],32.7 (Log10 CFU/thigh)/hr
same,Max Kill (maximum decrease from initial infection level),[9]; [20],−1.07 Log10 CFU/thigh
same,AUCc-t (AUC difference between control and treated animals),[9]; [20],60.4 (Log10 CFU/thigh)/hr
same,in vivo efficacy against S. aureus (in words),[9]; neutropenic soft tissue infection model,bactericidal characteristics and prolonged in vivo activity
same,MIC 50%,[10],0.06 µg/mL
same,MIC 90%,[10],0.12 µg/mL
same,MIC 50%,[11],0.06 µg/mL
same,MIC 90%,[11],0.06 µg/mL
same,MIC 50%,[12],0.12 µg/mL
same,MIC 90%,[12],0.12 µg/mL
same,MIC 50%,[13],0.06 µg/mL
same,MIC 90%,[13],0.25 µg/mL
same,MIC 50%,[14],4 µg/mL
same,MIC 90%,[14],8 µg/mL
same,fold more potent than linezolid,[15]; S. pneumoniae,32 fold
same,MIC 50%,[15],0.015 µg/mL
same,MIC 90%,[15],0.03 µg/mL
same,fold more potent than teicoplanin and daptomycin,[16]; β-hemolytic streptococci,two- to four
same,fold more potent than vancomycin,[16]; β-hemolytic streptococci,four- to eight
same,MIC 50%,[16],0.03 µg/mL
same,MIC 90%,[16],0.06 µg/mL
same,MIC 50%,[17],0.03 µg/mL
same,MIC 90%,[17],0.03 µg/mL
Teicoplanin [reference compound],MIC 50%,[1],0.5 µg/mL
same,MIC 90%,[1],0.5 µg/mL
same,MIC 50%,[2],2 µg/mL
same,MIC 90%,[2],4 µg/mL
same,MIC 50%,[3],1 µg/mL
same,MIC 90%,[3],1 µg/mL
same,MIC 50%,[5],0.5 µg/mL
same,MIC 90%,[5],1 µg/mL
same,MIC 50%,[6],64 µg/mL
same,MIC 90%,[6],>64 µg/mL
same,MIC 50%,[8],0.5 µg/mL
same,MIC 90%,[8],0.5 µg/mL
same,MIC 50%,[10],0.5 µg/mL
same,MIC 90%,[10],8 µg/mL
same,MIC 50%,[12],0.5 µg/mL
same,MIC 90%,[12],1 µg/mL
same,MIC 50%,[13],1 µg/mL
same,MIC 90%,[13],2 µg/mL
same,MIC 50%,[14],64 µg/mL
same,MIC 90%,[14],>64 µg/mL
same,MIC 50%,[15],0.12 µg/mL
same,MIC 90%,[15],0.12 µg/mL
same,MIC 50%,[16],0.12 µg/mL
same,MIC 90%,[16],0.25 µg/mL
same,MIC 50%,[17],1 µg/mL
same,MIC 90%,[17],1 µg/mL
